Read-outs that look alike come from different tables or passages of the source.
Tests used:
[1] = assay type: physicochemical; conditions: for DTA Vaporization temperature (endothermic peak) / DTA Transformation temperature (exothermic peak, reaction and/or decomposition): 25 to 350° C.
Experimental: Thermogravimetric analysis is a thermal analysis method in which the changes of the physical and chemical properties of the materials are measured as a function of the temperature. TGA can yield information on the physical phenomena, such as vaporization or combustion.
Similarly, one can obtain information on chemical phenomena such as dehydration or decomposition. In differential thermal analysis (DTA), the material under study and an inert reference material are exposed to identical thermal cycles. During the analysis, the difference in temperature between the sample and the reference material is recorded. These differences in temperatures monitored versus time relative to the inert reference material provide information on the exothermic or endothermic thermal phenomena undergone by the sample. By integration of the heat flow curve, DTA analysis yields the so-called endothermic enthalpy values when there is energy absorption, or so-called exothermic enthalpy values when energy is released in the form of heat. The endothermic character is connected with a change in the state of the compound (for example, vaporization), while the exothermic character is induced by decomposition reactions or intra- and intermolecular chemical reactions.
The analysis conditions are the following: • test specimen: 50 mg • open crucible under air flow: 100 mL/min • heating ramp: 10° C./min • temperature range: 25 at 350° C. (temperature conditions representative of normal use and of misuse of an electronic cigarette). Between analyses, the apparatus is cleaned by heating at 600° C. under air flow, in order to eliminate any trace of unvaporized residue deposited on the crucible, the arms of the scale, or the walls of the furnace.

[2] = Kinematic viscosity measurement of e-liquid products (Example 6); assay type: physicochemical
Experimental: Then, the kinematic viscosity of products A, B, C and D is measured.

OCC(O)CO [Glycerol, glycerol]
DTA residue unvaporized at 250° C. ([1]; air flow, 10° C./min): 27.3% | DTA Vaporization temperature (endothermic peak) ([1]; air flow, 10° C./min): 260 °C

OCCCO [1,3-propanediol]
DTA Transformation temperature (exothermic peak, reaction and/or decomposition) ([1]; air flow, 10° C./min): without any thermal decomposition | DTA Vaporization temperature (endothermic peak) ([1]; air flow, 10° C./min): 189 °C | Kinematic viscosity at 20° C. [2]: 52.6 mPa · s

CC(O)CO (stereo not drawn) [Propylene glycol, propylene glycol]
DTA Transformation temperature (exothermic peak, reaction and/or decomposition) ([1]; air flow, 10° C./min): without any thermal decomposition | DTA Vaporization temperature (endothermic peak) ([1]; air flow, 10° C./min): 174 °C | DTA Vaporization temperature (endothermic peak) ([1]; air flow, 10° C./min, listed as propylene glycol): 170 °C | evaporation temperature lower than that of nicotine ([1]; difference to nicotine): 16 °C
